Source: PubChem BioAssay (NCI)
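How tested: cells in 96-well plates exposed to compound for 48 hours at five concentrations. TGI: concentration producing complete growth inhibition.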

Columns and labels:
Test in all cases: NCI-60 cell line screen, 48 h
[1] = system: 786-0 renal
[2] = system: A498 renal
[3] = system: A549 NSCLC
[4] = system: ACHN renal
[5] = system: BT-549 breast
[6] = system: CAKI-1 renal
[7] = system: CCRF-CEM leukemia
[8] = system: COLO 205 colon
[9] = system: DU-145 prostate
[10] = system: EKVX NSCLC
[11] = system: HCT-116 colon
[12] = system: HCT-15 colon
[13] = system: HOP-62 NSCLC
[14] = system: HOP-92 NSCLC
[15] = system: HS 578T breast
[16] = system: HT29 colon
[17] = system: IGROV1 ovarian
[18] = system: K-562 leukemia
[19] = system: KM12 colon
[20] = system: LOX IMVI melanoma
[21] = system: M14 melanoma
[22] = system: MALME-3M melanoma
[23] = system: MCF7 breast
[24] = system: MDA-MB-231 breast
[25] = system: MDA-MB-435
[26] = system: MOLT-4 leukemia
[27] = system: NCI-H226 lung
[28] = system: NCI-H23 lung
[29] = system: NCI-H460 lung
[30] = system: NCI-H522 lung
[31] = system: NCI/ADR-RES ovarian
[32] = system: OVCAR-3 ovarian
[33] = system: OVCAR-4 ovarian
[34] = system: OVCAR-5 ovarian
[35] = system: OVCAR-8 ovarian
[36] = system: PC-3 prostate
[37] = system: RPMI-8226 leukemia
[38] = system: RXF 393 renal
[39] = system: SF-268 CNS
[40] = system: SF-295 CNS
[41] = system: SF-539 CNS
[42] = system: SK-MEL-2 melanoma
[43] = system: SK-MEL-28 melanoma
[44] = system: SK-MEL-5 melanoma
[45] = system: SK-OV-3 ovarian
[46] = system: SN12C renal
[47] = system: SNB-19 CNS
[48] = system: SNB-75 CNS
[49] = system: SR leukemia
[50] = system: SW-620 colon
[51] = system: T-47D breast
[52] = system: TK-10 renal
[53] = system: U251 CNS
[54] = system: UACC-257 melanoma
[55] = system: UACC-62 melanoma
[56] = system: UO-31 renal

`Cn1cnc([N+](=O)[O-])c1[Se]c1ncnc2nc[nH]c12` showed a TGI [1] of 26.5 µM, a TGI [2] of 37 µM and a TGI [3] of over 100 µM. It also gave a TGI [4] of 83.5 µM, a TGI [5] of 33.8 µM and a TGI [6] of 22.1 µM. The TGI [7] was 34.1 µM, the TGI [8] was 33.3 µM and the TGI [9] was over 100 µM. The TGI [10] was 47.4 µM, the TGI [11] was 74.5 µM and the TGI [12] was 81.6 µM. It also gave a TGI [13] of 50.3 µM, a TGI [14] of 27.9 µM and a TGI [15] of 39.9 µM. The TGI [16] was 84.4 µM, the TGI [17] was over 100 µM and the TGI [18] was 25.6 µM. For the same compound, the TGI [19] was 54.1 µM, the TGI [20] was 10.8 µM and the TGI [21] was 24.8 µM. It also gave a TGI [22] of 21.1 µM, a TGI [23] of 41.8 µM and a TGI [24] of 19.2 µM. It also gave a TGI [25] of 19.5 µM, a TGI [26] of 22 µM and a TGI [27] of 22.6 µM. For the same compound, the TGI [28] was 61.1 µM, the TGI [29] was over 100 µM and the TGI [30] was 14.7 µM. For the same compound, the TGI [31] was over 100 µM, the TGI [32] was 29.5 µM and the TGI [33] was 23.5 µM. For the same compound, the TGI [34] was 36.2 µM, the TGI [35] was 32.2 µM and the TGI [36] was over 100 µM. For the same compound, the TGI [37] was 71.7 µM, the TGI [38] was 38.7 µM and the TGI [39] was 78.9 µM. For the same compound, the TGI [40] was over 100 µM, the TGI [41] was 30.9 µM and the TGI [42] was 34.5 µM. It also gave a TGI [43] of 20.3 µM, a TGI [44] of 6.6 µM and a TGI [45] of over 100 µM. For the same compound, the TGI [46] was 32.8 µM, the TGI [47] was 85.8 µM and the TGI [48] was over 100 µM. For the same compound, the TGI [49] was 17 µM, the TGI [50] was 26.8 µM and the TGI [51] was 32.8 µM. For the same compound, the TGI [52] was over 100 µM, the TGI [53] was 44 µM and the TGI [54] was 16.8 µM. It also gave a TGI [55] of 10.1 µM and a TGI [56] of 60 µM.
`Oc1ccc(N=Cc2ccc(C=Nc3ccc(O)cc3)cc2)cc1` gave a TGI [1] of 31.4 µM, a TGI [2] of 94.2 µM and a TGI [3] of 38.4 µM. The TGI [4] was 26 µM, the TGI [5] was 33.8 µM and the TGI [6] was 35.1 µM. It also gave a TGI [7] of 30.7 µM, a TGI [8] of 39.2 µM and a TGI [9] of 32.4 µM. For the same compound, the TGI [10] was 83.6 µM, the TGI [11] was 36.8 µM and the TGI [12] was 29.1 µM. The TGI [13] was 37.1 µM, the TGI [14] was 62.7 µM and the TGI [15] was 60.1 µM. The TGI [16] was 89.4 µM, the TGI [17] was 39 µM and the TGI [18] was 40.4 µM. For the same compound, the TGI [19] was 33.3 µM, the TGI [20] was 41.4 µM and the TGI [21] was 34.5 µM. For the same compound, the TGI [22] was 34.4 µM, the TGI [23] was over 100 µM and the TGI [24] was 27.7 µM. It also gave a TGI [25] of 32.7 µM, a TGI [26] of 20 µM and a TGI [27] of 29.5 µM. The TGI [28] was 34.8 µM, the TGI [29] was 72.7 µM and the TGI [30] was 59.9 µM. The TGI [31] was 34.2 µM, the TGI [32] was 32.6 µM and the TGI [33] was 29.6 µM. The TGI [34] was 38.7 µM, the TGI [35] was 29.3 µM and the TGI [36] was 33 µM. The TGI [37] was 81.6 µM, the TGI [38] was 34.9 µM and the TGI [39] was 30.8 µM. It also gave a TGI [40] of 32.3 µM, a TGI [41] of 28.6 µM and a TGI [42] of 49.9 µM. It also gave a TGI [43] of 37.3 µM, a TGI [44] of 29.8 µM and a TGI [45] of 32.4 µM. It also gave a TGI [46] of 28.5 µM, a TGI [47] of 31.6 µM and a TGI [48] of 41.5 µM. For the same compound, the TGI [49] was 25.9 µM, the TGI [50] was 45.8 µM and the TGI [51] was over 100 µM. It also gave a TGI [52] of 34 µM, a TGI [53] of 27.6 µM and a TGI [54] of 32.4 µM. It also gave a TGI [55] of 25.5 µM and a TGI [56] of 34 µM.
